What was measured:
[1] = target: His-Brd2(60-472) (Homo sapiens (Human), UniProt P25440); test: TR-FRET in-vitro binding assay for BRD2; conditions: biochemical
Outline: (§1)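 Bromodomain protein (45 nM in its addition solution) and tetra-acetylated histone H4 peptide (AcK5/8/12/16; 60 nM in its addition solution) were incubated with compounds for 35 min at 30 °C in 50 mM HEPES pH 7.5, 50 mM NaCl, 0.005% Tween20, 0.1% BSA. Eu-anti-His6 plus streptavidin-allophycocyanin detection followed, with TR-FRET read-out.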

[2] = target: His-Brd3(20-477) (Homo sapiens (Human), UniProt Q15059); test: TR-FRET in-vitro binding assay for BRD3; conditions: biochemical
His-Brd3(20-477), sequence (Q15059 20-477): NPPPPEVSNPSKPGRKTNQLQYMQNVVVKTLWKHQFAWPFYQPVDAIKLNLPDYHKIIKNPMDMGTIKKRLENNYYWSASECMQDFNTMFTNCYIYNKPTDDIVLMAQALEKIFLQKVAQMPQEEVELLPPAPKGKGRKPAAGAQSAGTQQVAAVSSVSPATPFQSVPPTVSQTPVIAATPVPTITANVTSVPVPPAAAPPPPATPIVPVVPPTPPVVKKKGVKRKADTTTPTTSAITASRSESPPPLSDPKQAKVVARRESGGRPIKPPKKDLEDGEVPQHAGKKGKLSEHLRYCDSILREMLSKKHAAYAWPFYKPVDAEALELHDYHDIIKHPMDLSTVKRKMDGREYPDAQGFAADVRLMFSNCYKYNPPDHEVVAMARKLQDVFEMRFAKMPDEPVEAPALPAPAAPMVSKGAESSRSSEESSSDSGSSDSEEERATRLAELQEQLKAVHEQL
Outline: as §1

[3] = target: His-CREBBP (1081-1197) bromodomain (Homo sapiens (Human), UniProt Q92793); test: AlphaScreen in-vitro binding assay for CREBBP; conditions: biochemical
His-CREBBP (1081-1197) bromodomain, sequence (Q92793 1081-1197): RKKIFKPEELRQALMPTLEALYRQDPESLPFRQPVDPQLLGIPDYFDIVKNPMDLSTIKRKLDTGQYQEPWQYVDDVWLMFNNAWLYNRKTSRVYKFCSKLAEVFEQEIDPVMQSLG
Outline: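 Ni-chelate acceptor and streptavidin donor beads (45 µg/mL each, in 50 mM HEPES pH 7.5, 150 mM NaCl, 0.02% BSA) were then added for 60 min at room temperature. IC50 came from 8-point non-linear regression.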

[4] = target: nuclear BRD4-NUT foci in HCC2494 NUT midline carcinoma cells (Homo sapiens (Human), UniProt O60885+Q86Y26); test: Nut-foci formation assay; format: cell-based; conditions: 24 hours, read-out: HCS Brd4-NUT IC50
Outline: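 HCC2494 cells carrying BRD4-NUT, treated 24 h at 37 °C with 3-fold dilutions from 10 μM. Fixed and stained with anti-NUT antibody, imaged automatically to count nuclear foci per nucleus.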

His-Brd2(60-472), sequence (P25440 60-472): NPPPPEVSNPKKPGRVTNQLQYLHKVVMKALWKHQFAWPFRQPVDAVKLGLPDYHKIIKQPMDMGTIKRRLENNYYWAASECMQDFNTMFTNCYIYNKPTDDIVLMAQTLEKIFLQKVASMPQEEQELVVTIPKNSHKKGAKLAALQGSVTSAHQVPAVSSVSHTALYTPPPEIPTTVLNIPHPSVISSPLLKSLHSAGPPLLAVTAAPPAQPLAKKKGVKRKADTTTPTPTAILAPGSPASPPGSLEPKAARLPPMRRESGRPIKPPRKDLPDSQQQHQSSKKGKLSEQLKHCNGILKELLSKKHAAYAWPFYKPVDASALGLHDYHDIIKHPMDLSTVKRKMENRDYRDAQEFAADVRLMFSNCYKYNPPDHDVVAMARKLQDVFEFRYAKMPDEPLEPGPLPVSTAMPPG

Compound	IC50 [1] [nM]	IC50 [2] [nM]	IC50 [3] [nM]	IC50 [4] [nM]
COc1ncc(-n2nc(C)c3c2C(=O)N(c2cc(C)c(=O)n(C)c2)[C@H]3c2ccc(Cl)cc2)c(OC)n1 [Example 99, (S)-4-(4-chlorophenyl)-1-(2,4-dimethoxypyrimidin-5-yl)-5-(1,5-dimethyl-6-oxo-1,6-dihydropyridin-3-yl)-3-methyl-4,5-dihydropyrrolo[3,4-c]pyrazol-6(1H)-one]	6000	7600	> 37000	8860
Cc1nn(C2CN(C)C2)c2c1C(c1ccc(Cl)cc1)N(c1cc(C)c(=O)n(C)c1)C2=O (stereo not drawn) [Example 140, 4-(4-chlorophenyl)-5-(1,5-dimethyl-6-oxo-1,6-dihydropyridin-3-yl)-3-methyl-1-(1-methylazetidin-3-yl)-4,5-dihydropyrrolo[3,4-c]pyrazol-6(1H)-one]	420	440	15000	435
Cc1ncccc1-n1nc2c(c1C)C(c1ccc(Cl)cc1)N(c1cc(C)c(=O)n(C)c1)C2=O (stereo not drawn) [Example 81, 4-(4-chlorophenyl)-5-(1,5-dimethyl-6-oxo-1,6-dihydropyridin-3-yl)-3-methyl-2-(2-methylpyridin-3-yl)-4,5-dihydropyrrolo[3,4-c]pyrazol-6(2H)-one]	120	97	920	74.3
COc1ncccc1-n1nc(C)c2c1C(=O)N(c1cc(C)c(=O)n(C)c1)[C@@H]2c1ccc(Cl)cc1 [Example 128, (R)-4-(4-chlorophenyl)-5-(1,5-dimethyl-6-oxo-1,6-dihydropyridin-3-yl)-1-(2-methoxypyridin-3-yl)-3-methyl-4,5-dihydropyrrolo[3,4-c]pyrazol-6(1H)-one]	30	37	3700	53.3
Cc1cc(N2C(=O)c3c(c(C4CC4)nn3-c3ccnn3C)C2c2ccc(Cl)cc2)cn2c(C)nnc12 (stereo not drawn) [Example 117, 4-(4-chlorophenyl)-3-cyclopropyl-5-(3,8-dimethyl-[1,2,4]triazolo[4,3-a]pyridin-6-yl)-1-(1-methyl-1H-pyrazol-5-yl)-4,5-dihydropyrrolo[3,4-c]pyrazol-6(1H)-one]	34	38	> 37000	24.3
CC(=O)N1CC(n2nc(C)c3c2C(=O)N(c2cc(C)c(=O)n(C)c2)C3c2ccc(Cl)cc2)C1 (stereo not drawn) [Example 153, 1-(1-acetylazetidin-3-yl)-4-(4-chlorophenyl)-5-(1,5-dimethyl-6-oxo-1,6-dihydropyridin-3-yl)-3-methyl-4,5-dihydropyrrolo[3,4-c]pyrazol-6(1H)-one]	160	130	12000	150
CCc1nn(CCOCC(F)(F)F)c2c1C(c1ccc(Cl)cc1)N(c1cc(OC)c3nnc(C)n3c1)C2=O (stereo not drawn) [Example 108, 4-(4-chlorophenyl)-3-ethyl-5-(8-methoxy-3-methyl-[1,2,4]triazolo[4,3-a]pyridin-6-yl)-1-(2-(2,2,2-trifluoroethoxy)ethyl)-4,5-dihydropyrrolo[3,4-c]pyrazol-6(1H)-one]	210	280	> 37000	635
Cc1nn(C(C)C)c2c1[C@@H](c1ccc(Cl)cc1)N(c1cc(C)c(=O)n(C)c1)C2=O [Example 104, (R)-4-(4-chlorophenyl)-5-(1,5-dimethyl-6-oxo-1,6-dihydropyridin-3-yl)-1-isopropyl-3-methyl-4,5-dihydropyrrolo[3,4-c]pyrazol-6(1H)-one]	14	15	1200	11.3
Cc1nn(-c2ccnn2C)c2c1[C@@H](c1ccc(Cl)cc1)N(c1cc(C)c(=O)n(C)c1)C2=O [Example 120, (R)-4-(4-chlorophenyl)-5-(1,5-dimethyl-6-oxo-1,6-dihydropyridin-3-yl)-3-methyl-1-(1-methyl-1H-pyrazol-5-yl)-4,5-dihydropyrrolo[3,4-c]pyrazol-6(1H)-one]	78	83	4300	65.4
Cc1nn(-c2ccnn2C)c2c1C(c1ccc(Cl)cc1)N(c1cc(C)c3nnc(C)n3n1)C2=O (stereo not drawn) [Example 114, 4-(4-chlorophenyl)-5-(3,8-dimethyl-[1,2,4]triazolo[4,3-b]pyridazin-6-yl)-3-methyl-1-(1-methyl-1H-pyrazol-5-yl)-4,5-dihydropyrrolo[3,4-c]pyrazol-6(1H)-one]	35	37	> 37000	23.2
Cc1nn(-c2ccnn2C)c2c1[C@H](c1ccc(Cl)cc1)N(c1cc(C)c(=O)n(C)c1)C2=O [Example 121, (S)-4-(4-chlorophenyl)-5-(1,5-dimethyl-6-oxo-1,6-dihydropyridin-3-yl)-3-methyl-1-(1-methyl-1H-pyrazol-5-yl)-4,5-dihydropyrrolo[3,4-c]pyrazol-6(1H)-one]	5300	5400	> 37000	6110
Cc1nn(C2CNC2)c2c1C(c1ccc(Cl)cc1)N(c1cc(C)c3nnc(C)n3c1)C2=O (stereo not drawn) [Example 151, 1-(azetidin-3-yl)-4-(4-chlorophenyl)-5-(3,8-dimethyl-[1,2,4]triazolo[4,3-a]pyridin-6-yl)-3-methyl-4,5-dihydropyrrolo[3,4-c]pyrazol-6(1H)-one]	150	160	> 37000	554
Cc1ncccc1-n1nc(C)c2c1C(=O)N(c1cc(C)c(=O)n(C)c1)C2c1ccc(Cl)cc1 (stereo not drawn) [Example 82, 4-(4-chlorophenyl)-5-(1,5-dimethyl-6-oxo-1,6-dihydropyridin-3-yl)-3-methyl-1-(2-methylpyridin-3-yl)-4,5-dihydropyrrolo[3,4-c]pyrazol-6(1H)-one]	97	96	6500	29.4
Cc1nn(C2CCC2)c2c1C(c1ccc(Cl)cc1)N(c1cc(C)c(=O)n(C)c1)C2=O (stereo not drawn) [Example 94, 4-(4-chlorophenyl)-1-cyclobutyl-5-(1,5-dimethyl-6-oxo-1,6-dihydropyridin-3-yl)-3-methyl-4,5-dihydropyrrolo[3,4-c]pyrazol-6(1H)-one]	25	28	650	21.9
CCOC(=O)N1CC(n2nc(C)c3c2C(=O)N(c2cc(C)c(=O)n(C)c2)C3c2ccc(Cl)cc2)C1 (stereo not drawn) [Example 155, Ethyl 3-(4-(4-chlorophenyl)-5-(1,5-dimethyl-6-oxo-1,6-dihydropyridin-3-yl)-3-methyl-6-oxo-5,6-dihydropyrrolo[3,4-c]pyrazol-1(4H)-yl)azetidine-1-carboxylate]	80	76	11000	106
CCn1nc2c(c1C)C(c1ccc(Cl)cc1)N(c1cc(C)c3nnc(C)n3c1)C2=O (stereo not drawn) [Example 115, 4-(4-chlorophenyl)-5-(3,8-dimethyl-[1,2,4]triazolo[4,3-a]pyridin-6-yl)-2-ethyl-3-methyl-4,5-dihydropyrrolo[3,4-c]pyrazol-6(2H)-one]	48	46	1200	39.7
CCc1nn(CCO)c2c1C(c1ccc(Cl)cc1)N(c1cc(C)c3onc(C)c3c1)C2=O (stereo not drawn) [Example 79, 4-(4-chlorophenyl)-5-(3,7-dimethylbenzo[d]isoxazol-5-yl)-3-ethyl-1-(2-hydroxyethyl)-4,5-dihydropyrrolo[3,4-c]pyrazol-6(1H)-one]	110	86	11000	150
Cc1nn(C2CC2)c2c1C(c1ccc(Cl)cc1)N(c1ccc3nnn(C)c3n1)C2=O (stereo not drawn) [Example 102, 4-(4-chlorophenyl)-1-cyclopropyl-3-methyl-5-(3-methyl-3H-[1,2,3]triazolo[4,5-b]-pyridin-5-yl)-4,5-dihydropyrrolo[3,4-c]pyrazol-6(1H)-one]	72	55	> 37000	230
Cc1nn(C2CC2)c2c1C(c1cccc(C(F)(F)F)c1)N(c1cc(C)c(=O)n(C)c1)C2=O (stereo not drawn) [Example 96, 1-cyclopropyl-5-(1,5-dimethyl-6-oxo-1,6-dihydropyridin-3-yl)-3-methyl-4-(3-(trifluoromethyl)phenyl)-4,5-dihydropyrrolo[3,4-c]pyrazol-6(1H)-one]	660	800	18000	2010
COc1ncc(-n2nc(C)c3c2C(=O)N(c2cc(C)c(=O)n(C)c2)[C@@H]3c2ccc(Cl)cc2)c(OC)n1 [Example 100, (R)-4-(4-chlorophenyl)-1-(2,4-dimethoxypyrimidin-5-yl)-5-(1,5-dimethyl-6-oxo-1,6-dihydropyridin-3-yl)-3-methyl-4,5-dihydropyrrolo[3,4-c]pyrazol-6(1H)-one]	28	27	4200	42.1
Cc1cc(N2C(=O)c3nn(C(=O)N(C)C)c(C)c3[C@H]2c2ccc(Cl)cc2)cn2c(C)nnc12 [Example 150, (R)-4-(4-chlorophenyl)-5-(3,8-dimethyl-[1,2,4]triazolo[4,3-a]pyridin-6-yl)-N,N,3-trimethyl-6-oxo-5,6-dihydropyrrolo[3,4-c]pyrazole-2(4H)-carboxamide]	140	120	4600	27.8

Reference: patent US8975417B2, “Pyrazolopyrrolidine derivatives and their use in the treatment of disease” (Novartis AG, priority 2013, dated 2015)
